In patent publication US10894069B2, “Topical antiviral formulations and methods of using the same” (priority 2015, dated 2021):

Columns and labels:
[1] = cited from earlier work
[2] = tested on: herpes genitalias; assay: Patient case, topical treatment of herpes genitalis; assay type: in vivo, human; settings: person, high dose
Procedure: Operating with informed consent, individuals treated with the topical composition and the methods of the present invention for treating herpes virus infection, more particularly Herpes simplex and herpes zoster or shingles, as described in Examples 3 to 8.
A person presented with a decade or longer history of herpes genitalias recurring on the epithelium of the penis, more specifically the shaft. […] The patient was then treated with Composition B of the cannabinoid rich topical of Example 1 one to two times a day.

[3] = tested on: Herpes simplex; assay: Informal patient trials, topical treatment of Herpes simplex of the lips / herpes labialis; assay type: in vivo, human; settings: person; for benefit of prior therapy, orally: oral
[4] = cited from earlier work; remark: listed apart in the source

CCCCCc1cc(O)c2c(c1)OC(C)(C)[C@@H]1CCC(C)=C[C@@H]21 [THC, delta-9-tetrahydrocannabinol]
solubility in organic solvents ([1]; specifically lipids and alcohols): good solubility in most organic solvents

CC(C)[C@H](N)C(=O)OCCOCn1cnc2c(=O)[nH]c(N)nc21 [Valtrex, valacyclovir]
response of severe pain with burning and tingling to prior therapy [2]: had not responded
satisfaction with prior therapy ([3]; high doses): without total satisfaction
benefit of prior therapy, orally [3]: slight benefit

Nc1nc2c(ncn2COCCO)c(=O)[nH]1 [Zovirax, acyclovir]
benefit of prior therapy, orally [3]: slight benefit
benefit of prior therapy, topically ([3]; topical): without benefit

Nc1nc2c(ncn2COCCO)c(=O)[nH]1 [acyclovir]
concentrations in the skin following topical application versus following oral administration [4]: 2-3 times lower
solubility in water [1]: poor water-solubility
